# According to patent US20240174662A1, “SMALL MOLECULE INHIBITORS OF SALT INDUCIBLE KINASES” (Janssen Biotech, Inc., priority 2021, published 2024):
# Target: SIK2 (Homo sapiens (Human), UniProt Q9H0K1)
# Experiment: SIK2 Enzymatic Assay Version 2 (High ATP)
# Format: biochemical
# Conditions: 3 mM ATP and 200 μM HDAC5tide final, ADP-Glo Max luminescence
# Description: All steps were performed at room temperature. Compounds were pre-plated onto an assay plate using an Echo acoustic dispenser (Labcyte, […] or […]) at 80 nL per well. Enzyme prepared in assay buffer at 6 nM (2× final concentration) was added at 4 μL per well using the Multidrop Combi (Thermo Fisher-used for all additions in this assay) to the assay plate, spun for 1 min at 1000 rpm (Allegra 6KR Beckman Coulter centrifuge), and incubated with compound for 30 minutes. […] ADP-Glo Max Reagent (prepared and aliquoted as per manufacturer instructions) was then added at 8 μL per well, spun and incubated for 2 hours. ADP-Glo Max Detection (prepared and aliquoted as per manufacturer instructions) was added at 8 μL per well to the assay plate, which was spun and incubated for 1 hour. The plate was then read on the Pherastar (BMG Labtech) using a luminescence read. Gain was set between 2200-2500.
# Sequence of SIK2 (Q9H0K1 whole entry, species assumed): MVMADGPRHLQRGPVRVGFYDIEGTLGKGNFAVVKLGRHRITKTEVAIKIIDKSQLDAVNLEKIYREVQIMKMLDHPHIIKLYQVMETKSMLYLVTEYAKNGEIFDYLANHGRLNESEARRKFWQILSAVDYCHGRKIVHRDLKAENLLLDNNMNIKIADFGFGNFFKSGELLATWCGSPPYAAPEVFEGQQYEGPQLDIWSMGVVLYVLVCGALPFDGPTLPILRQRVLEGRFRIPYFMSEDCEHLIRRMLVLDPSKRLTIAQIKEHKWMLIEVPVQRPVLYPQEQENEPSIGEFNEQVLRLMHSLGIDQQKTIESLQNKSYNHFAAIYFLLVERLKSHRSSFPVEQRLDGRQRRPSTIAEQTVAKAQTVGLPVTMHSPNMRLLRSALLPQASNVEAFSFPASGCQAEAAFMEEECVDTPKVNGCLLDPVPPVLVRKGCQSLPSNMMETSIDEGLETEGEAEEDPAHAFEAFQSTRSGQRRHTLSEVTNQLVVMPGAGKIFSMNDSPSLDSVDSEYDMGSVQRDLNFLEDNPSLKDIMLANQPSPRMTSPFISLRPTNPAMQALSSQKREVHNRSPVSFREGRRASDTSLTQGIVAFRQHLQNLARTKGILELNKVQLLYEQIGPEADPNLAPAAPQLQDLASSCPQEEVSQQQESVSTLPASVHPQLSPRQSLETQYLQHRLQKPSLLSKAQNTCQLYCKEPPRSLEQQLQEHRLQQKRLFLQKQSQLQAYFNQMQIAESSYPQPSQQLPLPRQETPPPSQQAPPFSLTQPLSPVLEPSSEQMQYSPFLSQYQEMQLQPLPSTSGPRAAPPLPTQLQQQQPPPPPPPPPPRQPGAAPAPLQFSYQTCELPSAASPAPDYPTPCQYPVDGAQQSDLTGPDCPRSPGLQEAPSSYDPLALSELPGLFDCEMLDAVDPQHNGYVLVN
row,Structure (SMILES),IC50 [nM]
1,"Cc1cc(Nc2cc3cc(-c4c(OC[C@@H]5CCN(C)C5=O)cnn4C)ccn3n2)nc(C)n1 (single isomer, unassigned) [Example 34, (*S)-3-[[5-[2-[(2,6-dimethylpyrimidin-4-yl)amino]pyrazolo[1,5-a]pyridin-5-yl]-1-methyl-pyrazol-4-yl]oxymethyl]-1-methyl-pyrrolidin-2-one]",9.2
2,"Cc1cc(Nc2cc3cc(-c4c(OC[C@@H]5CC(=O)N(C)C5)cnn4C)ccn3n2)nc(C)n1 (single isomer, unassigned) [Example 35, *R-4-[[5-[2-[(2,6-dimethylpyrimidin-4-yl)amino]pyrazolo[1,5-a]pyridin-5-yl]-1-methyl-pyrazol-4-yl]oxymethyl]-1-methyl-pyrrolidin-2-one]",19.2
3,"CO[C@@H]1CNC[C@@H]1Oc1cnn(C)c1-c1ccn2nc(NC(=O)C3CC3)cc2c1 (single isomer, unassigned) [Example 40, N-(5-(4-(((3*S,4*R)-4-methoxypyrrolidin-3-yl)oxy)-1-methyl-1H-pyrazol-5-yl)pyrazolo[1,5-a]pyridin-2-yl)cyclopropanecarboxamide]",444
4,"C[C@@H]1[C@@H](COc2cnn(C)c2-c2ccn3nc(NC(=O)C4CC4)cc3c2)CN1C (single isomer, unassigned) [Example 41, trans-N-(5-(4-(((2*R,3*S)-1,2-dimethylazetidin-3-yl)methoxy)-1-methyl-1H-pyrazol-5-yl)pyrazolo[1,5-a]pyridin-2-yl)cyclopropanecarboxamide]",14.6
5,"CN1CC2(CCOCC2)[C@@H]1COc1cnn(C)c1-c1ccn2nc(NC(=O)C3CC3)cc2c1 (single isomer, unassigned) [Example 58, (*R)—N-(5-(1-methyl-4-((2-methyl-7-oxa-2-azaspiro[3.5]nonan-1-yl)methoxy)-1H-pyrazol-5-yl)pyrazolo[1,5-a]pyridin-2-yl)cyclopropanecarboxamide]",57.8
6,"CN1CC2(CCOCC2)[C@H]1COc1cnn(C)c1-c1ccn2nc(NC(=O)C3CC3)cc2c1 (single isomer, unassigned) [Example 59, (*S)—N-[5-[2-methyl-4-[(2-methyl-7-oxa-2-azaspiro[3.5]nonan-3-yl)methoxy]pyrazol-3-yl]pyrazolo[1,5-a]pyridin-2-yl]cyclopropanecarboxamide]",690
7,"CCN1CC2(CC2)[C@H]1COc1cnn(C)c1-c1ccn2nc(NC(=O)C3CC3)cc2c1 (single isomer, unassigned) [Example 67, (*S)—N-[5-[4-[(5-ethyl-5-azaspiro[2.3]hexan-6-yl)methoxy]-2-methyl-pyrazol-3-yl]pyrazolo[1,5-a]pyridin-2-yl]cyclopropanecarboxamide]",52.1
8,"CN1CC[C@@H]1COc1cnn(C)c1-c1ccn2nc(NC(=O)[C@H]3C[C@@H]3c3ccccc3)cc2c1 (single isomer, unassigned) [Example 156, (1*S, 2*S)—N-[5-[2-methyl-4-[((R)-1-methylazetidin-2-yl)methoxy]pyrazol-3-yl]pyrazolo[1,5-a]pyridin-2-yl]-2-phenyl-cyclopropanecarboxamide]",3.1
9,"CN1CC[C@@H]1COc1cnn(C)c1-c1ccn2nc(NC(=O)[C@@H]3C[C@H]3c3ccccc3)cc2c1 (single isomer, unassigned) [Example 157, (1*R,2*R)—N-[5-[2-methyl-4-[((R)1-methylazetidin-2-yl)methoxy]pyrazol-3-yl]pyrazolo[1,5-a]pyridin-2-yl]-2-phenyl-cyclopropanecarboxamide]",11.1
10,"CN1CC[C@@H]1COc1cnn(C)c1-c1ccn2nc(NC(=O)[C@H]3C[C@H]3c3ccccc3)cc2c1 (single isomer, unassigned) [Example 159, (1*S,2*R)—N-(5-(1-methyl-4-(((R)-1-methylazetidin-2-yl)methoxy)-1H-pyrazol-5-yl)pyrazolo[1,5-a]pyridin-2-yl)-2-phenylcyclopropane-1-carboxamide]",24.2
11,"Cn1ncc(CO[C@@H]2CNCC2(F)F)c1-c1ccn2nc(NC(=O)C3CC3)cc2c1 (single isomer, unassigned) [Example 189, (*R)—N-[5-[4-[(4,4-difluoropyrrolidin-3-yl)oxymethyl]-2-methyl-pyrazol-3-yl]pyrazolo[1,5-a]pyridin-2-yl]cyclopropanecarboxamide]",12
12,"C[C@H]1CNC[C@H]1OCc1cnn(C)c1-c1ccn2nc(NC(=O)C3CC3)cc2c1 (single isomer, unassigned) [Example 194, (3*S,4*S)—N-[5-[2-methyl-4-[(4-methylpyrrolidin-3-yl)oxymethyl]pyrazol-3-yl]pyrazolo[1,5-a]pyridin-2-yl]cyclopropanecarboxamide]",4.7
13,"C[C@H]1CN(C)C[C@H]1OCc1cnn(C)c1-c1ccn2nc(NC(=O)C3CC3)cc2c1 (single isomer, unassigned) [Example 195, (3*S,4*S)—N-[5-[4-[(1,4-dimethylpyrrolidin-3-yl)oxymethyl]-2-methyl-pyrazol-3-yl]pyrazolo[1,5-a]pyridin-2-yl]cyclopropanecarboxamide]",3.5

# The remaining lines, values ahead:
row,IC50 [nM],Structure (SMILES)
1,24.7,"C[C@@H]1CNC[C@@H]1OCc1cnn(C)c1-c1ccn2nc(NC(=O)C3CC3)cc2c1 (single isomer, unassigned) [Example 196, (3*R, 4*R)—N-[5-[2-methyl-4-[(4-methylpyrrolidin-3-yl)oxymethyl]pyrazol-3-yl]pyrazolo[1,5-a]pyridin-2-yl]cyclopropanecarboxamide]"
2,28.1,"C[C@@H]1CN(C)C[C@@H]1OCc1cnn(C)c1-c1ccn2nc(NC(=O)C3CC3)cc2c1 (single isomer, unassigned) [Example 197, (3*R, 4*R)—N-[5-[4-[(1,4-dimethylpyrrolidin-3-yl)oxymethyl]-2-methyl-pyrazol-3-yl]pyrazolo[1,5-a]pyridin-2-yl]cyclopropanecarboxamide]"
3,12.3,"COC1CNC[C@@H]1Oc1noc(C)c1-c1ccn2nc(NC(=O)C3CC3)cc2c1 (single isomer, unassigned) [Example 202, N-(5-(3-(((3*S,4*R)-4-methoxypyrrolidin-3-yl)oxy)-5-methylisoxazol-4-yl)pyrazolo[1,5-a]pyridin-2-yl)cyclopropanecarboxamide]"
4,14.9,"CO[C@@]1(COc2noc(C)c2-c2ccn3nc(NC(=O)C4CC4)cc3c2)CCNC1 (single isomer, unassigned) [Example 209, (*S)—N-(5-(3-((3-methoxypyrrolidin-3-yl)methoxy)-5-methylisoxazol-4-yl)pyrazolo[1,5-a]pyridin-2-yl)cyclopropanecarboxamide]"
5,7.5,"Cc1onc(O[C@H]2CNCC2F)c1-c1ccn2nc(NC(=O)C3CC3)cc2c1 (single isomer, unassigned) [Example 210, N-(5-(3-(((3*S,4*R)-4-fluoropyrrolidin-3-yl)oxy)-5-methylisoxazol-4-yl)pyrazolo[1,5-a]pyridin-2-yl)cyclopropanecarboxamide]"
6,27.5,"Cc1onc(O[C@@H]2CCNC[C@@H]2F)c1-c1ccn2nc(NC(=O)C3CC3)cc2c1 (single isomer, unassigned) [Example 215, N-(5-(3-(((3*S,4*R)-3-fluoropiperidin-4-yl)oxy)-5-methylisoxazol-4-yl)pyrazolo[1,5-a]pyridin-2-yl)cyclopropanecarboxamide]"
7,29.6,"Cc1onc(O[C@@H]2CCNC[C@H]2F)c1-c1ccn2nc(NC(=O)C3CC3)cc2c1 (single isomer, unassigned) [Example 216, N-(5-(3-(((3*R,4*S)-3-fluoropiperidin-4-yl)oxy)-5-methylisoxazol-4-yl)pyrazolo[1,5-a]pyridin-2-yl)cyclopropanecarboxamide]"
8,24.1,"Cc1onc(O[C@H]2C[C@@H]3C[C@H]2CN3)c1-c1ccn2nc(NC(=O)C3CC3)cc2c1 (single isomer, unassigned) [Example 217, N-(5-(3-(((1*S,4*S,5*R)-2-azabicyclo[2.2.1]heptan-5-yl)oxy)-5-methylisoxazol-4-yl)pyrazolo[1,5-a]pyridin-2-yl)cyclopropanecarboxamide]"
9,49.5,"Cc1onc(O[C@@H]2CCNC3(CCC3)C2)c1-c1ccn2nc(NC(=O)C3CC3)cc2c1 (single isomer, unassigned) [Example 218, (*R)—N-[5-[3-(9-azaspiro[3.5]nonan-6-yloxy)-5-methyl-isoxazol-4-yl]pyrazolo[1,5-a]pyridin-2-yl]cyclopropanecarboxamide]"
10,44.3,"Cc1onc(O[C@@H]2CCN(C)C3(CCC3)C2)c1-c1ccn2nc(NC(=O)C3CC3)cc2c1 (single isomer, unassigned) [Example 219, (*R)—N-[5-[5-methyl-3-[(9-methyl-9-azaspiro[3.5]nonan-6-yl)oxy]isoxazol-4-yl]pyrazolo[1,5-a]pyridin-2-yl]cyclopropanecarboxamide]"
11,16.4,"Cc1onc(O[C@H]2CN[C@H]3CCCO[C@H]32)c1-c1ccn2nc(NC(=O)C3CC3)cc2c1 (single isomer, unassigned) [Example 228, N-(5-(5-methyl-3-(((3*S,3a*R,7a*S)-octahydropyrano[3,2-b]pyrrol-3-yl)oxy)isoxazol-4-yl)pyrazolo[1,5-a]pyridin-2-yl)cyclopropanecarboxamide]"
12,34.8,"C[C@@H]1CNC[C@@H]1Oc1cnn(C)c1-c1ccn2nc(NC(=O)C3CC3)cc2c1 (single isomer, unassigned) [Example 238, (3*R, 4*R)—N-[5-[2-methyl-4-(4-methylpyrrolidin-3-yl)oxy-pyrazol-3-yl]pyrazolo[1,5-a]pyridin-2-yl]cyclopropanecarboxamide]"
